Results: publication PMC10144242, “Design, Synthesis, In Vitro, and In Silico Insights of 5-(Substituted benzylidene)-2-phenylthiazol-4(5H)-one Derivatives: A Novel Class of Anti-Melanogenic Compounds” (Molecules, 2023)
pKi: −log10 of the molar value.

How the values were obtained:
mushroom tyrosinase = mushroom tyrosinase (Agaricus bisporus, UniProt C7FF04); experiment: Kinetic studies on mushroom tyrosinase inhibition (Lineweaver–Burk and Dixon plots, L-DOPA substrate); assay type: biochemical; design: purchased Sigma-Aldrich; conditions: for pKi: Dixon plots, read-out: Ki (inhibition constant); for Inhibition type: Lineweaver–Burk plot
Chain of mushroom tyrosinase (C7FF04 1-392 limits assumed): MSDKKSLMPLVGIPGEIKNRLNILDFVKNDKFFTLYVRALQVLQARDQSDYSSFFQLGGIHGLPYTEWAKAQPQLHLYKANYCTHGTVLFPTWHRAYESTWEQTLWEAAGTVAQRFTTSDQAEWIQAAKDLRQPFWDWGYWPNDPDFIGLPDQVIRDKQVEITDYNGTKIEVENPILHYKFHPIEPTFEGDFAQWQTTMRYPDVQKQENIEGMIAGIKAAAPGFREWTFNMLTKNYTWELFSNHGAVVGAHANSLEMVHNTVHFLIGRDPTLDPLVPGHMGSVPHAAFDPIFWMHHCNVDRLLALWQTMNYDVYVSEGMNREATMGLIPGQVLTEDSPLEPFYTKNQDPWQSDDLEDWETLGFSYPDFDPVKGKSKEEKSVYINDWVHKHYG
Experimental: As depicted in Figure 2, the mechanisms of tyrosinase inhibition were analyzed using Lineweaver–Burk plots. […] Each of the four straight lines produced at each inhibitor concentration converged to a single point on the y-axis. […] In contrast, in derivative 3, four straight lines generated at each inhibitor concentration intersected at a point in the second quadrant. According to the Lineweaver–Burk plot, as the inhibitor concentration increased, the Vmax value of 3 decreased, but the KM value increased.
To determine the Ki (inhibition constant) values of (Z)-BPT derivatives 1–3, Lineweaver–Burk plots for 1–3 were transformed into the corresponding Dixon plots (Figure 3). Each Dixon plot obtained from each Lineweaver–Burk plot produced four straight lines that intersected at one point in the second quadrant. The vertical lines from the merge point to the x-axis provide the Ki value of each (Z)-BPT derivative.
To determine the mode of action, Lineweaver–Burk plots of (Z)-BPT derivatives 1–3 were acquired. In brief, 10 µL of (Z)-BPT derivatives 1–3 (final concentrations:0, 3, 6, or 12 µM for 1; 0, 0.05, 0.1, or 0.2 µM for 2; 0, 2.5, 5, or 10 µM for 3) was added to a 96-well plate containing a substrate mixture (170 µL) consisting of an aqueous solution of L-dopa at final concentrations of 0.5, 1.0, 2.0, or 4.0 mM and 14.7 mM potassium phosphate buffer (pH 6.5), and a mushroom tyrosinase aqueous solution (20 µL, 20 units). Using a microplate reader (VersaMax^TM, Molecular Devices, Sunnyvale, CA, USA) to measure the increase in absorbance at a wavelength of 492 nm (ΔOD492/min), the initial rate of dopachrome synthesis in the reaction mixture was estimated. Using five different concentrations of L-dopa, Lineweaver–Burk plots (inverse of the response rate (1/V) vs. inverse of L-dopa concentration (1/(S)) were created. The convergence points of the four plot lines were used to define the mode of action of tyrosinase inhibition.
Figure 2 Lineweaver–Burk plots for the inhibition of mushroom tyrosinase activity by (Z)-BPT derivatives 1–3. […] Three independent experiments with five different concentrations (0.5, 1, 2, 4, and 8 mM) of an L-DOPA substrate were used to measure the augmented dopachrome optical density per minute at 492 nm. The data are shown as mean values of 1/V (an inverse of that optical density per minute). The (Z)-BPT derivatives were used at concentrations of 0 (filled circles), 3 (unfilled circles), 6 (filled triangles), and 12 µM (unfilled triangles) for 1; 0 (filled circles), 0.05 (unfilled circles), 0.1 (filled triangles), and 0.2 µM (unfilled triangles) for 2; and 0 (filled circles), 2.5 (unfilled circles), 5 (filled triangles), and 10 µM (unfilled triangles) for 3. Each experiment was run independently in triplicates.
Figure 3 Dixon plots for the inhibition of mushroom tyrosinase activity by (Z)-BPT derivatives 1–3. The Ki values of (Z)-BPT derivatives 1–3 were obtained from the absolute values of the x-coordinate where four straight lines converged at one point. Three independent experiments with four different concentrations of (Z)-BPT derivatives were conducted to measure the augmented dopachrome optical density per minute at 492 nm. The data are shown as the mean values of 1/V (an inverse of that optical density per minute). The (Z)-BPT derivatives were used at concentrations of 0, 3, 6, and 12 µM for 1; 0, 0.05, 0.1, and 0.2 µM for 2; and 0, 2.5, 5, and 10 µM for 3. The experiments were performed at four different concentrations (0.5, 1, 2, and 4 mM) of L-DOPA. Each experiment was run independently in triplicates.

B16F10 cells [1] = experiment: Melanin content (anti-melanogenesis) assay in IBMX/α-MSH-stimulated cells; assay type: cell-based, murine; conditions: 72 h; for effect on cellular melanin content: B16F10, 20 µM, IBMX + α-MSH; for effect on cellular melanin content increased by stimulators: B16F10, 5, 10, 20 µM, IBMX 200 µM + α-MSH 1 µM
Experimental: Cells were exposed to four different concentrations (0, 5, 10, and 20 µM) of 1 and 2 prior to treatment with stimulators (3-isobutyl-1-methylxanthine (IBMX, 200 µM), and α-melanocyte stimulating hormone (α-MSH, 1 µM)). After 72 h of incubation, the effects of 1 and 2 on melanin production were determined. Cellular melanin levels were assessed by measuring melanin levels in cell lysates.
The melanin content assay standard procedure was used to investigate the anti-melanogenic effect of (Z)-BPT derivatives 1 and 2 with a few minor modifications. Briefly, B16F10 melanoma cells were seeded in each well of a 6-well plate at a density of 1 × 10^5 cells/well and allowed to adhere to the well bottom under conditions that were identical to those used for cell culture. […] For 72 h, B16F10 cells were incubated at 37 °C in a humid environment containing 5% CO2 after being treated with IBMX and α-MSH. To determine the intracellular melanin content, B16F10 cells stimulated with IBMX and α-MSH for 72 h were rinsed twice with PBS and incubated in 200 µL 1N-NaOH solution including 10% dimethyl sulfoxide (DMSO) at 60 °C. The cell lysates were transferred to a 96-well plate after an hour of incubation, and the absorbance of the melanin content was calculated using a VersaMax^TM microplate reader (Molecular Devices, Sunnyvale, CA, USA) to determine intracellular melanin levels. Each experiment was performed independently in triplicates.
Figure 7 Effects of (Z)-BPT derivatives 1 and 2 on cellular melanin levels in B16F10 cells. […] (A) Derivative 1 and (B) derivative 2.

B16F10 cells [2] = experiment: Cell viability / cytotoxicity, EZ-Cytox assay; assay type: cell-based, murine; conditions: concentrations ≤ 20 µM, 48 and 72 h
Experimental: Before investigating their inhibitory effects on B16F10 cells, the viability of (Z)-BPT derivatives 1–3 was examined in B16F10 cells.
To determine the cell viability, six different concentrations (0, 1, 2, 5, 10, and 20 µM) of (Z)-BPT derivatives 1–3 were used, and the results were examined at two time points (48 and 72 h). […] Based on the cell viability results, the concentrations for cell-based assays related to the melanin production level and cellular tyrosinase activity were determined.
Cytotoxicity studies of (Z)-BPT derivatives 1–3 were performed on B16F10 melanoma cells using the previously established EZ-Cytox (EZ-3000, DoGenBio, Seoul, Republic of Korea) test, and cytotoxicity studies of (Z)-BPT derivatives 1–3 were conducted on B16F10 melanoma cells. Briefly, B16F10 cells were seeded in a 96-well plate at a density of 1 × 10^4 cells/well and cultivated at 37 °C for 24 h in a humid environment with 5% CO2. […] The cells were then incubated at 37 °C for 2 h after 10 µL of the EZ-Cytox solution had been added to each well. To determine the cell viability, the absorbance of each well was measured at 450 nm using a microplate reader (VersaMax^TM, Molecular Devices, Sunnyvale, CA, USA). Each assay was performed in triplicates.
Figure 6 Effects of (Z)-BPT derivatives 1–3 on cell viability in B16F10 cells. Cytotoxic effects were measured using an EZ-Cytox assay at six different concentrations (0, 1, 2, 5, 10, and 20 µM) of 1–3. (A) Derivative 1; (B) Derivative 2; (C) Derivative 3. *** p < 0.001 for non-treated cells vs. cells treated with 3.

**Q.** With `O=C1N=C(c2ccccc2)S/C1=C\c1ccc(O)cc1` [Compound 1, (Z)-5-(4-Hydroxybenzylidene)-2-phenylthiazol-4(5H)-one] as the compound, how does the pKi (mushroom tyrosinase) read?
**A.** 5.05

**Q.** What about the Inhibition type (mushroom tyrosinase) of the same compound?
**A.** Competitive

**Q.** What about the “effect on cellular melanin content” value (B16F10 cells [1]) of the same compound?
**A.** more effectively than kojic acid

**Q.** And the “effect on cellular melanin content increased by stimulators” value (B16F10 cells [1])?
**A.** significantly and dose-dependently diminished

**Q.** What about the cytotoxicity (B16F10 cells [2]) of the same compound?
**A.** did not show any perceptible cytotoxicity

**Q.** `O=C1N=C(c2ccccc2)S/C1=C\c1ccc(O)cc1O` [Compound 2, (Z)-5-(2,4-Dihydroxybenzylidene)-2-phenylthiazol-4(5H)-one] was tested. Which pKi (mushroom tyrosinase) did it give?
**A.** 7.00

**Q.** What about the Inhibition type (mushroom tyrosinase) of the same compound?
**A.** Competitive

**Q.** And the “effect on cellular melanin content” value (B16F10 cells [1])?
**A.** below those of the non-treated control

**Q.** What about the “effect on cellular melanin content increased by stimulators” value (B16F10 cells [1]) of the same compound?
**A.** significantly and dose-dependently diminished

**Q.** And the cytotoxicity (B16F10 cells [2])?
**A.** did not show any perceptible cytotoxicity
